# Measured values from article PMC7901654, “Bioisosteric Discovery of NPA101.3, a Second-Generation RET/VEGFR2 Inhibitor Optimized for Single-Agent Polypharmacology” (Journal of Medicinal Chemistry, 2020).
# Legend:
# [1] = system: human RET-negative cells; experiment: Cell growth curves, human RET-negative cells taken together; assay type: cell-based; details: read-out: IC50 dose, all human RET-negative cells
# Method: The IC50 dose for all human RET-negative cells was >100.0 nM, confirming compound selectivity (Figure S8 and Table S4).
# Nthy-ory-3-1 (10000 per well), TPC-1 (10000 per well), MZ-CRC-1 (100000 per well), TT (200000 per well), Lc-2/ad (100000 per well), BCPAP (10000 per well), 8505-C (10000 per well), PC-9 (10000 per well), A549 (10000 per well), CALU-1 (10000 per well), NIH3T3 RET/C634Y (10000 per well), and NIH3T3 HRAS/G12V (10000 per well) were seeded in six-well tissue culture plates. Cells were kept in 2% (TPC-1), 5% (Nthy-ori-3-1), or 10% (BCPAP, 8505-C, CALU-1, A549, PC-9, TT, MZ-CRC-1, and Lc-2/ad) fetal calf serum or in 2% (NIH3T3 RET/C634Y and HRAS/G12V) calf serum. Ba/F3 cells (200000 per well in 2 mL) were seeded in six-well tissue culture plates and kept in 10% fetal calf serum. The day after plating, different concentrations of the drug or vehicle were added to the medium and changed every 2–3 days. Cells were counted every day (Ba/F3), every 2 days (fibroblasts), or every 2–3 days (human cell lines). To compare cell growth, we performed an unpaired Student’s t test using the Instat software program (Graphpad Software Inc.). […] IC50 doses were calculated through a curve fitting analysis from last day of growth curves using the PRISM software program (Graphpad Software Inc.).
# [2] = LCMS plasma analysis (in vivo metabolism study); parameters: species or system mouse; details: 10 mg/kg oral, mice, 1 h and 4 h after dosing, LC-MS
# Method: In vivo target (RET and VEGFR2) inhibition was studied by treating animals grafted with NIH3T3 RET/C634Y cells at different doses (0.3, 1, or 3 mg/kg/day p.o.) of NPA101.3 for 2 days and then performing Western blot analysis on protein extracts. […] Then, to determine antitumorigenic activity and to better distinguish RET- and VEGFR2-mediated effects, we tested NPA101.3 in nude mice transplanted with NIH3T3 cells transformed by either RET/C634Y or HRAS/G12V. Before tumors appeared, animals were treated daily with NPA101.3 (1.0, 3.0, or 10.0 mg/kg/day) or left untreated. […] Still, VEGFR2 inhibition was detected also in RAS-driven tumors, an effect that might explain the, albeit reduced, effect of the drug on their growth (Figure S13). Importantly, as predicted, no trace of NPA101.3 demethyl metabolites was detected after 1 or 4 h from oral dosing in mice (Figure S14). […]
# After thawing, cells were maintained in culture using minimum essential medium supplemented with 10% foetal bovine serum, 1% non-essential amino acids, 1% sodium pyruvate, 2mM L-glutamine, 1% pen-strep, 15μg/ml blasticidin and 100 μg/ml hygromycin. hERG channel expression induction was obtained by adding 10 μg/ml tetracycline 48 h before the experiment. […] Current amplitude was measured and […]
# Supplementary Figure S14: In vivo metabolism study. […] NPA101.3 drug peak was detected at 3.61 min (m/z = 529) at either time point. […]
smiles,measurement,setting,value
CC(C)(C)c1cc(NC(=O)Cc2ccc(-n3cnc4cc(-c5ccc(S(C)(=O)=O)cc5)ccc43)cc2)no1 [NPA101.3],IC50,[1],> 100 nM
same,demethyl metabolites in plasma,[2],no trace
